Results reported in the supplement of paper PMC10307832.

Columns and labels:
Assay in all cases: relative viability (nuclei count vs DMSO), 5 days (fraction); higher = more cells survive
Afatinib + OSI-027 = compound: CN(C)C/C=C/C(=O)Nc1cc2c(Nc3ccc(F)c(Cl)c3)ncnc2cc1O[C@H]1CCOC1 [Afatinib] + COc1cccc2cc(-c3nc([C@H]4CC[C@H](C(=O)O)CC4)n4ncnc(N)c34)[nH]c12 [OSI-027] (partner 0.5 µM)
Method in brief: (§1)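 Medians of duplicate plates are given as relative viability. That measure is the nuclei count in treated wells divided by the count in vehicle wells. Counts were taken on 4× images of lung cancer cell lines in 1536-well plates, 5 days after pin-tool dosing the day after seeding with one drug alone or a fixed anchor-drug dose plus five library-drug doses (not always all listed) in √10 steps.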

Afatinib + AZD7762 = compound: CN(C)C/C=C/C(=O)Nc1cc2c(Nc3ccc(F)c(Cl)c3)ncnc2cc1O[C@H]1CCOC1 [Afatinib] + NC(=O)Nc1cc(-c2cccc(F)c2)sc1C(=O)N[C@H]1CCCNC1 [AZD7762] (partner 0.2 µM)
Method in brief: as §1

Afatinib + Foretinib = compound: CN(C)C/C=C/C(=O)Nc1cc2c(Nc3ccc(F)c(Cl)c3)ncnc2cc1O[C@H]1CCOC1 [Afatinib] + COc1cc2c(Oc3ccc(NC(=O)C4(C(=O)Nc5ccc(F)cc5)CC4)cc3F)ccnc2cc1OCCCN1CCOCC1 [Foretinib] (partner 0.25 µM)
Method in brief: as §1

Afatinib + Pemetrexed = compound: CN(C)C/C=C/C(=O)Nc1cc2c(Nc3ccc(F)c(Cl)c3)ncnc2cc1O[C@H]1CCOC1 [Afatinib] + Nc1nc2[nH]cc(CCc3ccc(C(=O)N[C@@H](CCC(=O)O)C(=O)O)cc3)c2c(=O)[nH]1 [Pemetrexed] (partner 0.2 µM)
Method in brief: as §1

Cell Line	relative viability (Afatinib + OSI-027; first compound 0.005 µM)	relative viability (Afatinib + OSI-027; first compound 0.01581 µM)	relative viability (Afatinib + OSI-027; first compound 0.05 µM)	relative viability (Afatinib + OSI-027; first compound 0.1581 µM)	relative viability (Afatinib + OSI-027; first compound 0.5 µM)	relative viability (Afatinib + AZD7762; first compound 0.005 µM)	relative viability (Afatinib + AZD7762; first compound 0.01581 µM)	relative viability (Afatinib + AZD7762; first compound 0.05 µM)	relative viability (Afatinib + AZD7762; first compound 0.1581 µM)	relative viability (Afatinib + AZD7762; first compound 0.5 µM)	relative viability (Afatinib + Foretinib; first compound 0.005 µM)	relative viability (Afatinib + Foretinib; first compound 0.01581 µM)	relative viability (Afatinib + Foretinib; first compound 0.05 µM)	relative viability (Afatinib + Foretinib; first compound 0.1581 µM)	relative viability (Afatinib + Foretinib; first compound 0.5 µM)	relative viability (Afatinib + Pemetrexed; first compound 0.005 µM)	relative viability (Afatinib + Pemetrexed; first compound 0.01581 µM)	relative viability (Afatinib + Pemetrexed; first compound 0.05 µM)	relative viability (Afatinib + Pemetrexed; first compound 0.1581 µM)	relative viability (Afatinib + Pemetrexed; first compound 0.5 µM)
ChaGo-K-1	0.625	0.516	0.515	0.585	0.469	0.801	0.868	0.827	0.871	0.827	0.86	0.882	0.876	0.86	0.846	0.246	0.262	0.268	0.257	0.247
LOU-NH91	0.491	0.404	0.477	0.4	0.518	0.707	0.704	0.76	0.679	0.637	0.541	0.524	0.592	0.497	0.568	0.371	0.424	0.393	0.433	0.418
HOP-62	0.947	0.835	0.826	0.933	0.827	0.561	0.512	0.571	0.64	0.471	1.18	1.23	1.18	1.14	1.1	0.305	0.302	0.328	0.338	0.292
NCI-H1915	0.742	0.613	0.602	0.611	0.469	0.67	0.708	0.685	0.723	0.682	1.19	1.05	1.11	1.02	0.974	0.532	0.491	0.468	0.52	0.427
NCI-H3122	1.03	0.922	0.977	0.951	0.881	1.07	0.985	0.991	0.883	1.05	0.924	0.982	0.949	0.906	0.938	0.206	0.196	0.199	0.187	0.187
NCI-H1651	0.688	0.618	0.61	0.67	0.627	0.396	0.361	0.424	0.421	0.451	0.825	0.636	0.822	0.748	0.746	0.553	0.539	0.57	0.569	0.54
NCI-H838	0.445	0.353	0.371	0.365	0.363	0.801	0.946	0.915	0.968	0.953	1.07	1.01	1.11	1.02	1.26	0.246	0.243	0.259	0.243	0.259
NCI-H596	0.728	0.701	0.746	0.613	0.651	1.06	1.01	1.11	1.09	0.901	0.811	0.952	0.675	0.643	0.873	0.537	0.492	0.504	0.548	0.489
